Data set [1] concerns MT4. Nature of the data set: Cytotoxicity against human MT4 cells assessed as reduction in cell growth after 5 days by MTT assay. The data set is classed as functional. Conditions: MT4, 120 h, time 5 day.
Data set [2] has as its system Human immunodeficiency virus 1. Kind of data set: Antiviral activity against wild-type HIV-1 IIIB infected in human MT4 cells assessed as reduction in virus-induced cytopathic effect incubated for 5 days by MTT assay. The data set is classed as functional, organism-based. Conditions: Human immunodeficiency virus 1, IIIB, MT4, 120 h.
The target of data set [3] is Human immunodeficiency virus type 1 reverse transcriptase (Human immunodeficiency virus 1, UniProt Q72547). Kind of data set: Inhibition of wild type HIV-1 Reverse transcriptase.
Data set [4] concerns Human immunodeficiency virus 1. Nature of the data set: Antiviral activity against wild type HIV-1 NL4-3 infected in human MT4 cells assessed as reduction in viral replication measured for 72 hrs by ELISA analysis. The data set is classed as functional, organism-based. Conditions: Human immunodeficiency virus 1, NL4-3, MT4, 72 h. In general terms: An ELISA detects its analyte on a solid surface through an enzyme-linked reagent.

Data set [5] can be described thus: Binding affinity to HIV-1 reverse transcriptase Y181L mutant assessed as inhibition constant. More on the design: species or system Human immunodeficiency virus 1.
Data set [6] deals with T1, Reverse transcriptase (Human immunodeficiency virus 1, UniProt Q9WKE8, K103N). Nature of the data set: Binding affinity to HIV-1 reverse transcriptase K103N mutant assessed as inhibition constant.
In data set [7] the test system is Human immunodeficiency virus 1. Kind of data set: Antiviral activity against HIV-1 NL4-3 harboring infected Y188L mutant infected in human MT4 cells assessed as reduction in viral replication. It is filed as functional, organism-based. Conditions: Human immunodeficiency virus 1, NL4-3, MT4.
The test system of data set [8] is Human immunodeficiency virus 1. Nature of the data set: Antiviral activity against HIV-1 NL4-3 harboring infected K103N mutant infected in human MT4 cells assessed as reduction in viral replication. The data set is classed as functional, organism-based. Conditions: Human immunodeficiency virus 1, NL4-3, MT4.
Data set [9] concerns Human immunodeficiency virus 1. Kind of data set: Antiviral activity against HIV-1 NL4-3 harboring infected Y181C mutant infected in human MT4 cells assessed as reduction in viral replication. The data set is classed as functional, organism-based. The following applies: Human immunodeficiency virus 1, NL4-3, MT4.
The target of data set [10] is T1, Reverse transcriptase. Nature of the data set: Inhibition of HIV-1 Reverse transcriptase K103N mutant.
Data set [11] concerns Human immunodeficiency virus 1. Kind of data set: Antiviral activity against wild type HIV-1 NL4-3 infected in human MT4 cells assessed as reduction in viral replication. The data set is classed as functional, organism-based. The following applies: Human immunodeficiency virus 1, NL4-3, MT4; read-out: EC50.
Data set [12] has as its system Human immunodeficiency virus 1. Nature of the data set: Antiviral activity against wild type HIV-1 IIIB infected in human MT4 cells assessed as protection against virus-induced cytopathic effect incubated for 5 days by MTT assay. Conditions: Human immunodeficiency virus 1, IIIB, MT4, 120 h; time 5 day; read-out: ED50 (the source's name). It is filed as functional.

The test system of data set [13] is MT4. Kind of data set: Cytotoxicity against human MT4 cells assessed as reduction in cell growth incubated for 5 days by MTT assay. It is filed as functional. The following applies: MT4, 120 h, time 5 day. A general note: Tetrazolium dyes change colour on reduction, which living cells bring about.
The test system of data set [14] is Human immunodeficiency virus 1. Nature of the data set: Antiviral activity against HIV-1 3B infected in human MT4 cells assessed as reduction in viral replication incubated for 5 days by MTT assay. The data set is classed as functional, organism-based. Conditions: Human immunodeficiency virus 1, 3B, MT4, 120 h.
For data set [15], the system named is Human immunodeficiency virus 1. Nature of the data set: Antiviral activity against HIV-1 harboring protease V82F mutant infected in human C8166 cells assessed as inhibition of viral replication measured for 72 hrs by spectrophotometric MTT assay. Conditions: Human immunodeficiency virus 1, C8166, 72 h. The data set is classed as functional, organism-based.

Data set [16] in a line: Cytotoxicity against African green monkey Vero cells assessed as reduction in cell viability incubated for 72 hrs by MTT assay. It is filed as toxicity, cell-based. The following applies: chlorocebus sabaeus.
For data set [17], the system named is MT4. Kind of data set: Cytotoxicity against human MT4 cells. It is filed as functional.
Data set [18] relates to Human immunodeficiency virus 1. Nature of the data set: Antiviral activity against wild type HIV-1 IIIB infected in human MT4 cells assessed as protection against virus-induced cytopathic effect incubated for 72 hrs by MTT assay. The data set is classed as functional, organism-based. The following applies: Human immunodeficiency virus 1, IIIB, MT4, 72 h.

The record followed here is ChEMBL document CHEMBL6115028, “An Amazing 30-Year Journey around the DABO Family: A Medicinal Chemistry Lesson on a Versatile Class of Non-nucleoside HIV-1 Reverse Transcriptase Inhibitors” (J Med Chem, 2025).

Usually CC50 stands for the concentration at which the toxic effect on the cells reaches its halfway point. As a reminder, the IC50 is the concentration that inhibits the measured activity by half. Turning to `CCCNc1nc(C(C)c2c(F)cccc2F)c(C)c(=O)[nH]1` (stereo not given), in the data set with MT4 [1], the CC50 was over 200000 nM. Further, the EC50 in [2] turned out to be 20 nM. Further, the IC50 in data set [3] came out at 30 nM.

The Ki is a dissociation constant, usually derived from enzyme kinetics or from competition with a known ligand. For the compound `CCN(C)c1nc(C(C)c2c(F)cccc2F)c(C)c(=O)[nH]1` (stereo not given), in data set [4], the EC50 was 3 nM. The figures for the Ki (in [5]; at Reverse transcriptase [6]) were 4000 nM and 500 nM, respectively.

Regarding `Cc1c(C(C)c2c(F)cccc2F)nc(N(C)C(C)C)[nH]c1=O` (stereo not given), in data set [4], the EC50 amounted to 5 nM. Also, the figures for the Ki (in data set [5]; at Reverse transcriptase [6]) were 1190 nM and 80 nM, respectively.

As for `COc1ccc(CN(C)c2nc(C(C)c3c(F)cccc3F)cc(=O)[nH]2)cc1` (stereo not given), the EC50 in data set [7] was found to be 10 nM; in data set [8], 3 nM; in [9], 1610 nM; in data set [11], 2 nM. Moreover, inhibition against Reverse transcriptase [10] was half-maximal at 1050 nM (IC50).

Take `CCCN(C)c1nc(C(C)c2c(F)cccc2F)c(C)c(=O)[nH]1` (stereo not given): the EC50 in data set [4] came out at 5 nM. Besides, the Ki in data set [5] is 1430 nM; on Reverse transcriptase [6], 170 nM.

In the case of `CCOC1CSc2nc(=O)c(CC)c(Cc3cc(C)cc(C)c3)n21` (stereo not given), the EC50 in data set [12] is 700 nM.

As for `CCC(C)Sc1nc(Cc2cc(C)cc(C)c2)c(Br)c(=O)[nH]1` (stereo not given), the CC50 in the data set on MT4 [13] came out at 153000 nM. Moreover, the EC50 in data set [14] was determined as 6700 nM.

`C=CCc1c(Cc2cc(C)cc(C)c2)nc(SCC2OCCC(C)O2)[nH]c1=O` (stereo not given): the cytotoxic concentration (CC50) in the data set on MT4 [13] was over 100000 nM. In data set [14], the EC50 was 550 nM.

For the compound `COc1ccc(CNc2nc(C(C)c3c(F)cccc3F)cc(=O)[nH]2)cc1` (stereo not given), the EC50 in data set [7] is over 5000 nM; in data set [8], 2230 nM; in [9], 60 nM; in data set [11], 3 nM. Moreover, the IC50 on Reverse transcriptase [10] came out at 5000 nM.

As to `CSCSc1nc(Cc2c(F)cccc2Cl)cc(=O)[nH]1`, the EC50 in data set [15] was 400 nM. For the same compound, the CC50 at 72 h in [16] amounted to 55300 nM.

Compound `COc1cccc(Sc2nc(Cc3cc(C)cc(C)c3)c(C)c(=O)[nH]2)c1` showed a CC50 in the data set with MT4 [17] of over 100000 nM. For the same compound, in data set [18], the EC50 was determined as 1600 nM.

For the compound `CCc1c(Cc2cc(C)cc(C)c2)nc2n(c1=O)COCCS2`, the EC50 in [12] was 1600 nM.

Turning to `CSCSc1nc(Cc2c(Cl)cccc2Cl)cc(=O)[nH]1`, the EC50 in [15] worked out at 1300 nM. The CC50 at 72 h in data set [16] is 48100 nM.

`CCC(C)Sc1nc(Cc2cc(C)cc(C)c2)cc(=O)[nH]1` (stereo not given): the CC50 with MT4 [13] is 150000 nM. For the same compound, the EC50 in [14] is 1200 nM.

`Cc1c(C(C)c2c(F)cccc2F)nc(NC2CCCCC2)[nH]c1=O` (stereo not given): the CC50 in the data set on MT4 [1] turned out to be 90000 nM. The EC50 in data set [2] was 20 nM. In data set [3], half-maximal inhibition (IC50) was put at 35 nM.

Consider `Cc1cc(C)cc(OCCSc2nc(Cc3ccccc3)cc(=O)[nH]2)c1`, for which the EC50 in data set [15] was found to be 1300 nM. In data set [16], the CC50 at 72 h amounted to 72900 nM.

Take `CCCCNc1nc(Cc2c(F)cccc2F)c(C)c(=O)[nH]1`: in the data set with MT4 [1], the CC50 is 70000 nM. Also, the EC50 in data set [2] stood at 6 nM.

In the case of `CCc1c(Cc2cc(C)cc(C)c2)n2c(nc1=O)SCCOC2`, in data set [12], the EC50 is 600 nM.

With `COc1ccc(C2CC2CNc2nc(C(C)c3c(F)cccc3F)cc(=O)[nH]2)cc1` (stereo not given), the EC50 in data set [7] is over 5000 nM; in data set [8], 130 nM; in data set [9] it was 100 nM; in [11], 1 nM. This compound yielded an IC50 against Reverse transcriptase [10] of 880 nM.

Turning to `Cc1cc(C)cc(OCCSc2nc(Cc3c(F)cccc3F)cc(=O)[nH]2)c1`, the EC50 in [15] is 11200 nM. In data set [16], the CC50 at 72 h came to 90000 nM.

Consider `Cc1c(Cc2c(F)cccc2F)nc(NC2CCCCC2)[nH]c1=O`, for which the CC50 with MT4 [1] came to 200000 nM. Besides, the EC50 in [2] came to 5 nM.

On to `Cc1cc(C)cc(Cc2nc(Sc3cccnc3)[nH]c(=O)c2C)c1`, for which it took 55000 nM to reach half-maximal cytotoxicity with MT4 [17] (CC50). Moreover, the EC50 in data set [18] came out at 1600 nM.
